Laboratory results published in US10865406B2, “ALS inhibitor herbicide tolerant Beta vulgaris mutants” (priority 2010, dated 2020).

What was measured:
[1] = test system: Beta vulgaris wild-type and W574L-mutant (SB574TL) ALS; test: ALS enzyme activity measurements, E. coli expressed enzyme; format: biochemical; settings: crude protein extract, from pI50-values
Procedure: The coding sequence of a Beta vulgaris wild-type and a mutant B. vulgaris plant is cloned into, for example, Novagen pET-32a(+) vectors and the vectors are transformed into, for example, Escherichia coli AD494 according to the instructions of the manufacturer. Bacteria are preferably grown at 37° C. in medium under selection pressure such as in LB-medium containing 100 mg/l carbenicillin and 25 mg/l kanamycin, are induced with, for example, 1 mM isopropyl-β-D-thiogalactopyranoside at an OD600 of preferably about 0.6, cultivated for about 16 hours at preferably 18° C. and harvested by centrifugation. Bacterial pellets are resuspended in 100 mM sodium phosphate buffer pH 7.0 containing 0.1 mM thiamine-pyrophosphate, 1 mM MgCl2, and 1 μM FAD at a concentration of 1 gram wet weight per 25 ml of buffer and disrupted by sonification. The crude protein extract obtained after centrifugation is used for ALS activity measurements.
ALS assays are then carried out in, for example, 96-well microtiter plates using a modification of the procedure described by Ray (1984), Plant Physiol., 75, 827-831. The reaction mixture contains preferably 20 mM potassium phosphate buffer pH 7.0, […], 0.45 mM thiamine-pyrophosphate, 0.45 mM MgCl2, 9 μM FAD, ALS enzyme and various concentrations of ALS inhibitors in a final volume of about 90 μl. […]

[2] = test system: SB574TL sugar beet cell colony; test: Growth of selected mutant cell colony (clone SB574TL) on foramsulfuron medium; format: cell-based, Beta vulgaris; settings: 3×10^−7 M and even 3×10^−6 M foramsulfuron
From the text: When this callus type was exposed to 10^−9 M of the sulfonylurea foramsulfuron (CAS RN 173159-57-4), the cells survived, but produced less than 50% of the biomass of their siblings on medium devoid of the inhibitor. On medium containing 3×10^−8 M foramsulfuron no growth was detectable. For large scale mutant selection experiments 10^−7 M foramsulfuron was chosen. Surviving and growing cell colonies were numbered and transferred after 4-6 weeks onto fresh medium containing 3×10^−7 M of the inhibitor. One of these cell colonies was able to grow not only at this concentration of the inhibitor but even in presence of 3×10^−6 M of foramsulfuron. From this clone (SB574TL), shoots were regenerated in presence of the ALS-inhibitor herbicide and then the shoots were transferred to MS medium containing 0.05 mg/l Naphthalene acetic acid (NAA).
When this callus type was exposed to 10^−9 M of the ALS inhibitor herbicide foramsulfuron (belonging to the sulfonylurea subclass, see above), the cells survived, but produced less than 50% of the biomass of their siblings on medium devoid of the inhibitor. On medium containing 3×10^−8 M foramsulfuron no growth was detectable. For large scale mutant selection experiments, 10^−7 M foramsulfuron was chosen. Surviving and growing cell colonies were numbered and transferred after 4-6 weeks onto fresh medium containing 3×10^−7 M of the inhibitor. […]

[3] = test system: sugar beet calli (diploid genotype 7T9044); test: cells; format: cell-based, Beta vulgaris
Procedure: Sugar beet cell cultures were initiated from seedlings of a diploid sugar beet genotype 7T9044 (as, for example, described by Alexander Dovzhenko, PhD Thesis, Title: “Towards plastid transformation in rapeseed (Brassica napus L.) and sugarbeet (Beta vulgaris L.)”, Ludwig-Maximilians-Universität München, Germany, 2001). Sugar beet seeds were immersed for 60 seconds in 70% ethanol, then rinsed twice in sterile water with 0.01% detergent and then incubated for 1-4 hours in 1% NaOCl bleach. Thereafter the seeds were washed 3 times with sterile H2O and the seeds were stored in sterile water overnight at 4° C. The embryos were then isolated using forceps and scalpel.
The freshly prepared embryos were immersed in 0.5% NaOCl for 30 min and then washed 3 times in sterile water. After the last washing step they were placed on hormone free MS agar medium (Murashige and Skoog (1962), Physiol. Plantarum, 15, 473-497). Those embryos which developed into sterile seedlings were used for the initiation of regenerable sugar beet cell cultures.
Cotyledons as well as hypocotyls were cut into 2-5 mm long segments and then cultivated on agar (0.8%) solidified MS medium containing either 1 mg/l Benzylaminopurine (BAP) or 0.25 mg/l Thidiazuron (TDZ). 4 weeks later the developing shoot cultures were transferred onto fresh agar medium of the same composition and then sub-cultured in monthly intervals. […]

[4] = test system: regenerated plants from SB574TL cell culture; test: Herbicide treatment of regenerated plants from the foramsulfuron tolerant cell culture (greenhouse); format: in vivo, Beta vulgaris; settings: highest doses tested (range 7-70 g a.i./ha foramsulfuron, 1-10 g a.i./ha iodosulfuron-methyl-sodium, mixtures 7:1)
From the text: (§1) Within 4-12 weeks the shoots formed roots and then they were transferred into sterile plant containers filled with wet, sterilized perlite, watered with half strength MS inorganic ingredients. Alternatively the plantlets were transferred directly from the agar solidified medium in a perlite containing soil mixture in the greenhouse. During the first 10-15 days after transfer into soil containing substrate the plants were kept in an environment with high air humidity. During and after they were weaned to normal greenhouse air humidity regimes the plants were kept in the greenhouse under artificial light (12 h) at 20+−3° C./15+−2° C. day/night temperatures.
(§2) 3-5 weeks later, the regenerated plants from the above obtained foramsulfuron tolerant cell culture (SB574TL) as well as from the wild type cell cultures were treated with foramsulfuron, iodosulfuron-methyl-sodium (CAS RN […]) and a mixture of both active ingredients. The herbicide doses tested were equivalent to 7-70 g a.i./ha for foramsulfuron and 1-10 g a.i./ha for iodosulfuron-methyl-sodium.

[5] = test system: wild type sugar beet plants; test: Herbicide treatment of regenerated plants from wild type cell cultures (greenhouse); format: in vivo, Beta vulgaris; settings: lowest doses tested (range 7-70 g a.i./ha foramsulfuron, 1-10 g a.i./ha iodosulfuron-methyl-sodium, mixtures 7:1)
From the text: as §1, §2

[6] = test system: ALS in leaf extracts of wild type sugar beets and SB574TL; test: ALS enzyme activity measurements from plant leaf extracts; format: biochemical, Beta vulgaris
From the text: When plants are used, ALS activity is preferably determined in cell extracts or leaf extracts of wild type and B. vulgaris cell extracts or leaf extracts of the obtained mutant in the presence of various concentrations of ALS-inhibitor herbicides, preferably sulfonylurea herbicides or sulfonylamino-carbonyltriazolinone herbicides, more preferably in the presence of various concentrations of the ALS inhibitor herbicide “foramsulfuron”. ALS is thus preferably extracted from sugar beet leaves or sugar beet tissue cultures as described by Ray (1984) in Plant Physiol 75:827-831.
ALS was extracted from sugar beet leaves or sugar beet tissue cultures as described by Ray (1984), Plant Physiol 75:827-831.
ALS activity was determined in leaf extracts of wild type and sugar beets and leaf extracts of the obtained SB574TL in presence of various concentrations of foramsulfuron as described in Example 4.
In total, the mutant enzyme was at least 2000 times less sensitive against the ALS inhibitor foramsulfuron than the wild type enzyme.

| SMILES | sensitivity of mutant enzyme relative to wild type enzyme (times less sensitive) [1] | growth of mutant cell colony [2] | cell survival of callus ([3]; 10^−9 M foramsulfuron in medium) | viability at 0.001 µM ([3]; Beta vulgaris, read-out: biomass relative to siblings on medium devoid of the inhibitor) [%] | tolerance of regenerated plants to herbicide [4] | effect on wild type plants [5] | sensitivity of mutant enzyme relative to wild type enzyme (times less sensitive) [6] |
| --- | --- | --- | --- | --- | --- | --- | --- |
| COc1cc(OC)nc(NC(=O)NS(=O)(=O)c2cc(NC=O)ccc2C(=O)N(C)C)n1 [foramsulfuron] | at least 2000 times | able to grow | survived | < 50 | tolerated even the highest herbicide doses | killed | at least 2000 times |
| COC(=O)c1ccc(I)cc1S(=O)(=O)[N-]C(=O)Nc1nc(C)nc(OC)n1.[Na+] [iodosulfuron-methyl-sodium] |  |  |  |  | tolerated even the highest herbicide doses | killed |  |
